In PubChem BioAssay (NCI):
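Test compounds were applied to cells in 96-well plates for 48 hours at 5 doses. The concentration for full growth arrest is given as TGI.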

What was measured:
Assay in all cases: growth of human tumour cells (NCI), 48 h
786-0 renal = test system: 786-0 renal
A498 renal = test system: A498 renal
A549 NSCLC = test system: A549 NSCLC
ACHN renal = test system: ACHN renal
CCRF-CEM leukemia = test system: CCRF-CEM leukemia
COLO 205 colon = test system: COLO 205 colon
DLD-1 colon = test system: DLD-1 colon
DMS 114 small cell lung = test system: DMS 114 small cell lung
DMS 273 small cell lung = test system: DMS 273 small cell lung
EKVX NSCLC = test system: EKVX NSCLC
HCC-2998 colon = test system: HCC-2998 colon
HCT-116 colon = test system: HCT-116 colon
HCT-15 colon = test system: HCT-15 colon
HL-60(TB) leukemia = test system: HL-60(TB) leukemia
HOP-18 NSCLC = test system: HOP-18 NSCLC
HOP-62 NSCLC = test system: HOP-62 NSCLC
HOP-92 NSCLC = test system: HOP-92 NSCLC
HT29 colon = test system: HT29 colon
IGROV1 ovarian = test system: IGROV1 ovarian
K-562 leukemia = test system: K-562 leukemia
KM12 colon = test system: KM12 colon
KM20L2 colon = test system: KM20L2 colon
LOX IMVI melanoma = test system: LOX IMVI melanoma
LXFL 529 NSCLC = test system: LXFL 529 NSCLC
M14 melanoma = test system: M14 melanoma
M19-MEL melanoma = test system: M19-MEL melanoma
MALME-3M melanoma = test system: MALME-3M melanoma
MOLT-4 leukemia = test system: MOLT-4 leukemia
NCI-H226 lung = test system: NCI-H226 lung
NCI-H23 lung = test system: NCI-H23 lung
NCI-H460 lung = test system: NCI-H460 lung
NCI-H522 lung = test system: NCI-H522 lung
OVCAR-3 ovarian = test system: OVCAR-3 ovarian
OVCAR-4 ovarian = test system: OVCAR-4 ovarian
OVCAR-5 ovarian = test system: OVCAR-5 ovarian
OVCAR-8 ovarian = test system: OVCAR-8 ovarian
RPMI-8226 leukemia = test system: RPMI-8226 leukemia
RXF 393 renal = test system: RXF 393 renal
SF-268 CNS = test system: SF-268 CNS
SF-295 CNS = test system: SF-295 CNS
SF-539 CNS = test system: SF-539 CNS
SK-MEL-2 melanoma = test system: SK-MEL-2 melanoma
SK-MEL-28 melanoma = test system: SK-MEL-28 melanoma
SK-OV-3 ovarian = test system: SK-OV-3 ovarian
SN12C renal = test system: SN12C renal
SNB-19 CNS = test system: SNB-19 CNS
SNB-78 CNS = test system: SNB-78 CNS
SR leukemia = test system: SR leukemia
SW-620 colon = test system: SW-620 colon
TK-10 renal = test system: TK-10 renal
U251 CNS = test system: U251 CNS
UACC-257 melanoma = test system: UACC-257 melanoma
UACC-62 melanoma = test system: UACC-62 melanoma
UO-31 renal = test system: UO-31 renal
CAKI-1 renal = test system: CAKI-1 renal
SK-MEL-5 melanoma = test system: SK-MEL-5 melanoma
SNB-75 CNS = test system: SNB-75 CNS
XF 498 CNS = test system: XF 498 CNS

CN1N=C2c3ccccc3CC[C@H]2C1c1ccccc1 (some centres undefined)
TGI (786-0 renal): > 100 µM
TGI (A498 renal): > 100 µM
TGI (A549 NSCLC): > 100 µM
TGI (ACHN renal): > 100 µM
TGI (CCRF-CEM leukemia): > 100 µM
TGI (COLO 205 colon): > 100 µM
TGI (DLD-1 colon): > 100 µM
TGI (DMS 114 small cell lung): 70.8 µM
TGI (DMS 273 small cell lung): > 100 µM
TGI (EKVX NSCLC): > 100 µM
TGI (HCC-2998 colon): > 100 µM
TGI (HCT-116 colon): > 100 µM
TGI (HCT-15 colon): > 100 µM
TGI (HL-60(TB) leukemia): > 100 µM
TGI (HOP-18 NSCLC): > 100 µM
TGI (HOP-62 NSCLC): > 100 µM
TGI (HOP-92 NSCLC): 77.9 µM
TGI (HT29 colon): > 100 µM
TGI (IGROV1 ovarian): > 100 µM
TGI (K-562 leukemia): > 100 µM
TGI (KM12 colon): > 100 µM
TGI (KM20L2 colon): > 100 µM
TGI (LOX IMVI melanoma): > 100 µM
TGI (LXFL 529 NSCLC): > 100 µM
TGI (M14 melanoma): > 100 µM
TGI (M19-MEL melanoma): 66.1 µM
TGI (MALME-3M melanoma): 72.9 µM
TGI (MOLT-4 leukemia): > 100 µM
TGI (NCI-H226 lung): > 100 µM
TGI (NCI-H23 lung): > 100 µM
TGI (NCI-H460 lung): > 100 µM
TGI (NCI-H522 lung): 94.3 µM
TGI (OVCAR-3 ovarian): > 100 µM
TGI (OVCAR-4 ovarian): > 100 µM
TGI (OVCAR-5 ovarian): > 100 µM
TGI (OVCAR-8 ovarian): > 100 µM
TGI (RPMI-8226 leukemia): > 100 µM
TGI (RXF 393 renal): 81.5 µM
TGI (SF-268 CNS): > 100 µM
TGI (SF-295 CNS): > 100 µM
TGI (SF-539 CNS): > 100 µM
TGI (SK-MEL-2 melanoma): > 100 µM
TGI (SK-MEL-28 melanoma): > 100 µM
TGI (SK-OV-3 ovarian): > 100 µM
TGI (SN12C renal): > 100 µM
TGI (SNB-19 CNS): > 100 µM
TGI (SNB-78 CNS): > 100 µM
TGI (SR leukemia): > 100 µM
TGI (SW-620 colon): > 100 µM
TGI (TK-10 renal): > 100 µM
TGI (U251 CNS): > 100 µM
TGI (UACC-257 melanoma): 70.3 µM
TGI (UACC-62 melanoma): > 100 µM
TGI (UO-31 renal): > 100 µM

Cc1ccc(S(=O)(=O)N2CCC3(C(/C=C/c4ccccc4)=Nc4ccccc43)C2c2ccccc2)cc1 (centres undefined)
TGI (786-0 renal): > 100 µM
TGI (A498 renal): > 100 µM
TGI (A549 NSCLC): > 100 µM
TGI (ACHN renal): > 100 µM
TGI (CAKI-1 renal): > 100 µM
TGI (CCRF-CEM leukemia): > 100 µM
TGI (COLO 205 colon): > 100 µM
TGI (DLD-1 colon): > 100 µM
TGI (DMS 114 small cell lung): > 100 µM
TGI (DMS 273 small cell lung): > 100 µM
TGI (EKVX NSCLC): > 100 µM
TGI (HCC-2998 colon): > 100 µM
TGI (HCT-116 colon): > 100 µM
TGI (HCT-15 colon): > 100 µM
TGI (HL-60(TB) leukemia): > 100 µM
TGI (HOP-62 NSCLC): > 100 µM
TGI (HOP-92 NSCLC): > 100 µM
TGI (HT29 colon): > 100 µM
TGI (IGROV1 ovarian): 24.6 µM
TGI (K-562 leukemia): > 100 µM
TGI (KM12 colon): > 100 µM
TGI (KM20L2 colon): > 100 µM
TGI (LOX IMVI melanoma): > 100 µM
TGI (LXFL 529 NSCLC): > 100 µM
TGI (M14 melanoma): > 100 µM
TGI (M19-MEL melanoma): > 100 µM
TGI (MALME-3M melanoma): > 100 µM
TGI (NCI-H226 lung): > 100 µM
TGI (NCI-H23 lung): > 100 µM
TGI (NCI-H460 lung): > 100 µM
TGI (NCI-H522 lung): > 100 µM
TGI (OVCAR-3 ovarian): > 100 µM
TGI (OVCAR-4 ovarian): > 100 µM
TGI (OVCAR-5 ovarian): > 100 µM
TGI (OVCAR-8 ovarian): > 100 µM
TGI (RPMI-8226 leukemia): > 100 µM
TGI (RXF 393 renal): > 100 µM
TGI (SF-268 CNS): > 100 µM
TGI (SF-295 CNS): > 100 µM
TGI (SF-539 CNS): > 100 µM
TGI (SK-MEL-28 melanoma): > 100 µM
TGI (SK-MEL-5 melanoma): > 100 µM
TGI (SK-OV-3 ovarian): > 100 µM
TGI (SN12C renal): > 100 µM
TGI (SNB-19 CNS): > 100 µM
TGI (SNB-75 CNS): > 100 µM
TGI (SNB-78 CNS): > 100 µM
TGI (SR leukemia): > 100 µM
TGI (SW-620 colon): > 100 µM
TGI (TK-10 renal): > 100 µM
TGI (U251 CNS): > 100 µM
TGI (UACC-257 melanoma): > 100 µM
TGI (UACC-62 melanoma): > 100 µM
TGI (UO-31 renal): > 100 µM
TGI (XF 498 CNS): > 100 µM
